From PubChem BioAssay AID732 (Emory University Molecular Libraries Screening Center, 2007)
Calls of active or inactive are those of the source. The rule behind the calls is not given here. Peptide text beside a SMILES is read from it. * marks the point of attachment. Cbz = O=C(OCc1ccccc1)*

test system: in vivo angiogenesis, blood vessel count; test: reduction of blood vessel formation in vivo – HTS, in vivo study (AID 732); details: active compounds read low;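 tested at 30 µM in the well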;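 note: zebrafish embryos dosed at one day post fertilization; 0% = reference inhibitor and 100% = plate mean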

Row | Structure (SMILES) | vessel count % control
1 | O=c1[nH]c2ccccc2n1CCCN1CCC(n2c(=O)[nH]c3cc(Cl)ccc32)CC1 | 83.8% (inactive)
2 | O=C1CCc2cc(OCCCCc3nnnn3C3CCCCC3)ccc2N1 | 124% (inactive)
3 | O=Nc1c(-c2c(O)[nH]c3ccccc23)[nH]c2ccc(Br)cc12 | 67.5% (inactive)
4 | N[C@@H](Cc1c[nH]c2ccccc12)C(=O)O | 88.5% (inactive)
5 | CC(=O)Nc1nnc(S(N)(=O)=O)s1 | 78.2% (inactive)
6 | CN1CCC(=C2c3ccccc3C=Cc3ccccc32)CC1 | 0% (inactive)
7 | O=C1Nc2ccc(I)cc2/C1=C/c1cc(Br)c(O)c(Br)c1 | 69.8% (inactive)
8 | CCCCCCCCCCCCCCCCCC(=O)OC(CC(=O)O)C[N+](C)(C)C (centres undefined) | 71.9% (inactive)
9 | O=C(O)CC[N+](=O)[O-] | 87.6% (inactive)
10 | NC1CC1c1ccccc1 (centres undefined) | 94.1% (inactive)
11 | CCCCCCCCCCCCCCSCC(=O)O | 93.7% (inactive)
12 | CCCC(CCC)C(=O)O | 89.7% (inactive)
13 | CCCCCCCCCCCCCCCCCCOC[C@H](COP(=O)([O-])OCC[N+](C)(C)C)OC | 97.5% (inactive)
14 | Cc1ccc([N+](=O)[O-])cc1S(=O)(=O)N(C)C | 108% (inactive)
15 | O=C(O)CCC(C(=O)O)N1C(=O)c2ccccc2C1=O (centres undefined) | 105% (inactive)
16 | NC(=O)c1cc[n+](CC2=C(C(=O)O)N3C(=O)[C@@H](NC(=O)[C@@H](c4ccccc4)S(=O)(=O)[O-])[C@H]3SC2)cc1 | 99.9% (inactive)
17 | NC(N)=NOCC[C@H](N)C(=O)O | 94.1% (inactive)
18 | C=CCN1CC[C@]23c4c5ccc(O)c4O[C@H]2/C(=N/NC(=O)c2ccccc2)CC[C@@]3(O)[C@H]1C5 | 120% (inactive)
19 | CC(C)Cn1c(=O)n(C)c(=O)c2[nH]cnc21 | 78.7% (inactive)
20 | Nc1nc2c(ncn2COCCO)c(=O)[nH]1 | 110% (inactive)
21 | N[C@@H](COP(=O)(O)O)C(=O)O | 105% (inactive)
22 | COc1ccc2c(c1OC)C(=O)O[C@H]2[C@@H]1c2cc3c(cc2CCN1C)OCO3 | 116% (inactive)
23 | O=C(O)c1cc[c]([Hg][Cl])cc1 | 105% (inactive)
24 | CCn1c(=O)[nH]c2cc(Cl)c(Cl)cc21 | 87.7% (inactive)
25 | N[C@@H](CCC(=O)N[C@H](CSN=O)C(=O)NCC(=O)O)C(=O)O | 97.4% (inactive)

Row | Structure (SMILES) | vessel count % control
26 | COc1ccccc1N1CCN(CCN(C(=O)c2ccc(I)cc2)c2ccccn2)CC1 | 105% (inactive)
27 | CCNC(=O)C1OC(n2cnc3c(NCc4ccccc4)ncnc32)C(O)C1O (centres undefined) | 110% (inactive)
28 | CCC1(c2ccc(N)cc2)CCC(=O)NC1=O (centres undefined) | 98.8% (inactive)
29 | C=CC[C@H](N)C(=O)O | 111% (inactive)
30 | C#CCn1c(=O)c2c(ncn2C)n(C)c1=O | 103% (inactive)
31 | CC(C)[C@H](NC(=O)OCc1ccccc1)C(=O)N[C@H](C=O)Cc1ccccc1 (Cbz-Val-Phe-aldehyde) | 107% (inactive)
32 | NCCc1cnc[nH]1 | 93.3% (inactive)
33 | Cc1ccc2[nH]c(O)c(-c3[nH]c4ccc(Br)cc4c3N=O)c2c1 | 33.9%
34 | CN1CCCC1CCOC(C)(c1ccccc1)c1ccc(Cl)cc1 (centres undefined) | 67.5% (inactive)
35 | CNC(=O)Oc1ccc2c(c1)[C@]1(C)CCN(C)[C@@H]1N2C | 120% (inactive)
36 | O=C(C1CCCCC1)N1CC(=O)N2CCc3ccccc3C2C1 (centres undefined) | 101% (inactive)
37 | Cc1[nH]c2ccc(O)cc2c1CCN | 87% (inactive)
38 | CC[N+](CC)(CC)CCOc1cccc(OCC[N+](CC)(CC)CC)c1OCC[N+](CC)(CC)CC | 101% (inactive)
39 | Brc1c(NC2=NCCN2)ccc2nccnc12 | 104% (inactive)
40 | N#CC(C#N)=Cc1ccc(O)c(O)c1 | 119% (inactive)
41 | COc1cc(CC(=O)O)ccc1O | 116% (inactive)
42 | Cc1ccc(S(=O)(=O)NC(=O)NN2CCCCCC2)cc1 | 102% (inactive)
43 | C[C@]12CCC(=O)C=C1CC[C@@H]1[C@@H]2C(=O)C[C@@]2(C)[C@H]1CC[C@]2(O)C(=O)CO | 126% (inactive)
44 | CNCCCC12CCC(c3ccccc31)c1ccccc12 | 92.5% (inactive)
45 | Oc1ccc(C2CNCCc3c2cc(O)c(O)c3Cl)cc1 (centres undefined) | 117% (inactive)
46 | CCn1nc(C(=O)O)c(=O)c2cc3c(cc21)OCO3 | 102% (inactive)
47 | CCCCNc1c(C(=O)OCC)c(C)nc2c1cnn2CC | 87.3% (inactive)
48 | CCN(Cc1ccncc1)C(=O)C(CO)c1ccccc1 (centres undefined) | 114% (inactive)
49 | CC(C)(Sc1ccc(CCN(CCCCC2CCCCC2)C(=O)NC2CCCCC2)cc1)C(=O)O | 103% (inactive)
50 | COc1cc2nc(N3CCN(C(=O)C4CCCO4)CC3)nc(N)c2cc1OC (centres undefined) | 83.3% (inactive)

Row | Structure (SMILES) | vessel count % control
51 | CNCCC(Oc1ccc(C(F)(F)F)cc1)c1ccccc1 (centres undefined) | 74.2% (inactive)
52 | N[C@@H](Cc1ccc(O)c(I)c1)C(=O)O | 108% (inactive)
53 | C[C@@H](N)Cc1cnc[nH]1 | 97.8% (inactive)
54 | CC(=O)C(C)=O | 99.7% (inactive)
55 | CCCn1c(=O)c2[nH]c(-c3ccc(S(=O)(=O)O)cc3)nc2n(CCC)c1=O | 70.2% (inactive)
56 | CCCCNc1cc(C(=O)O)cc(S(N)(=O)=O)c1Oc1ccccc1 | 59.2% (inactive)
57 | Cc1c(C(=O)c2cccc3ccccc23)c2cccc3c2n1[C@H](CN1CCOCC1)CO3 | 0% (inactive)
58 | CN1C(C)(C)CCCC1(C)C | 106% (inactive)
59 | C=CCN1CCC23c4c5ccc(O)c4O[C@H]2C(=O)CC[C@@]3(O)C1C5 (some centres undefined) | 88.4% (inactive)
60 | CCCn1cnc2c1c(=O)n(CCCCC(C)=O)c(=O)n2C | 107% (inactive)
61 | NC(N)=NC(=O)Cc1c(Cl)cccc1Cl | 119% (inactive)
62 | Cc1[nH]c(=O)c(C#N)cc1-c1ccncc1 | 84.9% (inactive)
63 | CN(C)c1nc(N(C)C)nc(N(C)C)n1 | 86% (inactive)
64 | CCN(CC)CCOC(=O)C1(C2CCCCC2)CCCCC1 | 86.4% (inactive)
65 | COc1cccc(OC)c1OCCNCC1CSc2ccccc2O1 (centres undefined) | 71.1% (inactive)
66 | CCCCCCCCCCCCCCC[C@H](O)[C@H](N)CO | 101% (inactive)
67 | CC1CCN(CC[C@H]2CCCN2S(=O)(=O)c2cccc(O)c2)CC1 | 95.5% (inactive)
68 | NC(N)=NC(N)=Nc1ccccc1 | 72.6% (inactive)
69 | CC(N)C(=O)OC(C)(C)Cc1ccc(Cl)cc1 (centres undefined) | 112% (inactive)
70 | CCN(CC)c1ncnc2c1ncn2[C@@H]1O[C@H](COP(=O)(O)OP(=O)(O)C(Br)(Br)P(=O)(O)O)[C@@H](O)[C@H]1O | 81.9% (inactive)
71 | COc1cc2nc(N3CCN(C(=O)C4COc5ccccc5O4)CC3)nc(N)c2cc1OC (centres undefined) | 103% (inactive)
72 | O=c1[nH]c(=O)n([C@H]2C[C@H](O)[C@@H](CO)O2)cc1/C=C/Br | 93% (inactive)
73 | C[N+]1(C)CCc2cc3c(cc2[C@H]1[C@@H]1OC(=O)c2c1ccc1c2OCO1)OCO3 | 85.4% (inactive)
74 | NC(=O)C(=O)O | 125% (inactive)
75 | Oc1[nH]c2c(Cl)cc(Cl)cc2c1C1=Nc2ccc(Br)cc2/C1=N\OCCBr | 121% (inactive)

Row | Structure (SMILES) | vessel count % control
76 | N[C@H](C(=O)O)[C@H]1C[C@@H]1C(=O)O | 92.9% (inactive)
77 | COc1ccc(CCN(C)CCc2ccc(OC)c(OC)c2)cc1OC | 101% (inactive)
78 | C[N+](C)(C)CCOC(=O)CBr | 95.6% (inactive)
79 | COC(=O)c1cc2c(cn1)[nH]c1ccccc12 | 92.7% (inactive)
80 | Nc1ccn([C@H]2CC[C@@H](CO)O2)c(=O)n1 | 103% (inactive)
81 | O=C(O)c1cc2cc(F)ccc2[nH]1 | 104% (inactive)
82 | CC1C(=O)N(C)C(=O)c2nc[nH]c21 (centres undefined) | 98.5% (inactive)
83 | C[C@]12CCC(=O)C=C1CC[C@@H]1[C@@H]2CC[C@]2(C)C(=O)CC[C@@H]12 | 102% (inactive)
84 | CC(C)C[C@H]1C(=O)N2CCC[C@H]2[C@]2(O)O[C@](NC(=O)[C@@H]3C=C4c5cccc6[nH]c(Br)c(c56)C[C@H]4N(C)C3)(C(C)C)C(=O)N12 | 110% (inactive)
85 | Cc1cccc(C)c1OCC(N)C(C)C (centres undefined) | 112% (inactive)
86 | Oc1[nH]c2c(Cl)cc(Cl)cc2c1C1=Nc2ccc(Br)cc2/C1=N\OCCN1CCNCC1 | 90.9% (inactive)
87 | CN(C)C/C=C(/c1ccc(Br)cc1)c1cccnc1 | 104% (inactive)
88 | COC(=O)C1=C(C)NC(C)=C(C(=O)OCCN(C)Cc2ccccc2)C1c1cccc([N+](=O)[O-])c1 (centres undefined) | 65.5% (inactive)
89 | Oc1cc(O)c2c(c1)O[C@H](c1ccc(O)c(O)c1)[C@@H](O)C2 | 114% (inactive)
90 | CC(C)N(CCC(=O)c1ccc2ccccc2c1)Cc1ccccc1 | 0% (inactive)
91 | NC(Cc1ccc(N(CCCl)CCCl)cc1)C(=O)O (centres undefined) | 123% (inactive)
92 | C[N+]1(C)CCOC(O)(c2ccc(-c3ccc(C4(O)C[N+](C)(C)CCO4)cc3)cc2)C1 (centres undefined) | 103% (inactive)
93 | NC(N)=N/N=C/c1c(Cl)cccc1Cl | 112% (inactive)
94 | COC(=O)c1c(-c2cc(OC)c(OC)c(OC)c2)c2ccnc(OCc3ncccn3)c2c(=O)n1Cc1ccnc(C)c1 | 99.4% (inactive)
95 | OC[C@H]1O[C@@H](n2cnc3c(Nc4ccccc4)ncnc32)C(O)[C@H]1O (some centres undefined) | 110% (inactive)
96 | CNC(=O)[C@H]1O[C@@H](n2cnc3c(N)ncnc32)C(O)[C@H]1O (some centres undefined) | 118% (inactive)
97 | CCOC(=O)C(C)(C)Oc1ccc(Cl)cc1 | 55.4% (inactive)
98 | CN(N=O)c1ccc(O)c(O)c1 | 96.8% (inactive)
99 | O=c1c(O)c(-c2cc(O)c(O)c(O)c2)oc2cc(O)cc(O)c12 | 87.9% (inactive)
